Data taken from ChEMBL document CHEMBL3400102, “Design, synthesis and biological evaluation of N-phenylthieno[2,3-d]pyrimidin-4-amines as inhibitors of FGFR1” (Bioorg Med Chem, 2015).

What was measured:
[1] = target: Fibroblast growth factor receptor 1 (Homo sapiens, UniProt P11362); assay: Inhibition of FGFR1 (unknown origin) using KKKSPGEYVNIEFG peptide substrate assessed as incorporation of [32P] into peptide by scintillation counting analysis
[2] = Antiproliferative activity against human KG1 cells after 72 hrs by MTT assay; assay type: functional, cell-based; details: KG-1, 72 h

Sequence of Fibroblast growth factor receptor 1 (P11362 whole entry): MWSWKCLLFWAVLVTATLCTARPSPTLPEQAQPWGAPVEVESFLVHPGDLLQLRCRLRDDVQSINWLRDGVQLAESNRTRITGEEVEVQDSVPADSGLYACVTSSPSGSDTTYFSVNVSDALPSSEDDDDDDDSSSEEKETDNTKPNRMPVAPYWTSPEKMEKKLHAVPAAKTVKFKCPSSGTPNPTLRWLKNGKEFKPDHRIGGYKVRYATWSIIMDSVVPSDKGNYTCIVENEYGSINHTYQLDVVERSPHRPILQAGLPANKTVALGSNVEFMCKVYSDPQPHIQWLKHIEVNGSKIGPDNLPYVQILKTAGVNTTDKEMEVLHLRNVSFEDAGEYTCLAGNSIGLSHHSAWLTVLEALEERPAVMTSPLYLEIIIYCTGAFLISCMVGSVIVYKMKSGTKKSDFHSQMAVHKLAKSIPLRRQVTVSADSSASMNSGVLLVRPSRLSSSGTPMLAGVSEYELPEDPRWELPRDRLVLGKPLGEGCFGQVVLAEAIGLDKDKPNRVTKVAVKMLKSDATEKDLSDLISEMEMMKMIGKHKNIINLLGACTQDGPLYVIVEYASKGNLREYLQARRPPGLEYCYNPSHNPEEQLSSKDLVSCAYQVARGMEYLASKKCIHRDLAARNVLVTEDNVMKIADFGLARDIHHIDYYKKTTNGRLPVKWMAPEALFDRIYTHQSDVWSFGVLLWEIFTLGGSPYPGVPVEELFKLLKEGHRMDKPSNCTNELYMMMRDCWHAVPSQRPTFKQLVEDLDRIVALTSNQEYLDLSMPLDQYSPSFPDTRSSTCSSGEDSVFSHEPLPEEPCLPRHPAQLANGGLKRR

Row | IC50 [1] [µM] | SMILES | IC50 [2] [µM]
1 | > 30 | Fc1ccccc1Nc1ncnc2scc(-c3ccccc3)c12 | 
2 | > 30 | Cc1ccc(-c2csc3ncnc(Nc4ccc(C(=O)O)cc4)c23)cc1 | 
3 | > 30 | Cc1ccc(-c2csc3ncnc(Nc4ccc(F)cc4)c23)cc1 | 
4 | > 30 | CCOC(=O)c1sc2ncnc(Nc3cccc(C(=O)O)c3)c2c1C | 
5 | > 30 | CCOC(=O)c1sc2ncnc(Nc3ccc(F)cc3)c2c1C | 
6 | > 30 | COc1cccc(Nc2ncnc3scc(-c4ccc(Cl)cc4)c23)c1 | 
7 | 0.18 | Oc1cccc(Nc2ncnc3scc(-c4ccccc4)c23)c1 | 26.2
8 | 5 | COc1ccc(Nc2ncnc3scc(-c4ccc(C)cc4)c23)cc1 | 
9 | > 30 | CCOC(=O)c1sc2ncnc(Nc3ccc(OC)cc3)c2c1C | 
10 | 0.16 | Oc1cccc(Nc2ncnc3sc(-c4ccccc4)cc23)c1 | 16.2
11 | 12.5 | CCOc1ccc(-c2csc3ncnc(Nc4cccc(O)c4)c23)cc1 | 
12 | 1.6 | Fc1ccc(Nc2ncnc3sc4c(c23)CCCCC4)cc1Cl | 
13 | 5 | Cc1nc(Nc2ccc(O)cc2)c2cc(-c3ccccc3)sc2n1 | 
14 | 18.2 | Fc1ccccc1Nc1ncnc2sc(-c3ccccc3)cc12 | 
15 | 0.5 | CCOC(=O)c1sc2ncnc(Nc3cccc(O)c3)c2c1C | 
16 | 1.66 | Oc1ccc(Nc2ncnc3scc(-c4ccccc4)c23)cc1 | 

Row | IC50 [1] [µM] | SMILES | IC50 [2] [µM]
17 | > 30 | Fc1ccc(Nc2ncnc3scc(-c4ccc(Cl)cc4)c23)cc1 | 
18 | 11 | Cc1ccc(-c2csc3ncnc(Nc4cccc(C(=O)O)c4)c23)cc1 | 
19 | 6.3 | Fc1ccc(Nc2ncnc3scc(-c4ccccc4)c23)cc1 | 
20 | 4.3 | Fc1ccc(Nc2ncnc3sc(-c4ccccc4)cc23)cc1 | 
21 | 3 | COc1ccc(Nc2ncnc3scc(-c4ccccc4)c23)cc1 | 
22 | 0.5 | Oc1cccc(Nc2ncnc3scc(-c4ccc(Cl)cc4)c23)c1 | 50
23 | 3 | Oc1ccc(Nc2ncnc3scc(-c4ccc(Cl)cc4)c23)cc1 | 
24 | 1.2 | Oc1ccc(Nc2ncnc3sc(-c4ccccc4)cc23)cc1 | 
25 | 5.6 | Cc1cc2c(Nc3ccc(O)cc3)ncnc2s1 | 
26 | 2.5 | COc1cccc(Nc2ncnc3scc(-c4ccccc4)c23)c1 | 
27 | 3.2 | Fc1ccc(Nc2ncnc3sc4c(c23)CCCC4)cc1 | 
28 | > 30 | CCOc1ccc(-c2csc3ncnc(Nc4ccc(O)cc4)c23)cc1 | 
29 | 0.7 | Cc1ccc(-c2csc3ncnc(Nc4cccc(O)c4)c23)cc1 | 33.9
30 | 4.3 | Fc1ccccc1Nc1ncnc2sc3c(c12)CCCCC3 | 
31 | > 30 | CCOC(=O)c1sc2ncnc(Nc3cccc(OC)c3)c2c1C | 
32 | 1.25 | Cc1sc2ncnc(Nc3ccc(O)cc3)c2c1-c1ccccc1 | 
